Reference: US7220727B2, “Aminoglycosides as antibiotics” (priority 2000, dated 2007)

Legend:
[1] = system: any of the microorganisms tested; assay: MIC, microdilution broth, whole panel of bacterial strains; type: cell-based; conditions: whole spectrum of strains
Description: (§1) Escherichia coli JM83 is an antibiotic-sensitive laboratory strain. E. coli JM83 (APH(3′)-I) contains high copies (500–700 copies per cell) of plasmid pUC19 with the cloned kanamycin resistance gene from transposon Tn903 that produces the type I aminoglycoside 3′-phosphotransferase. APH(3′)-I is the most common aminoglycoside phosphotransferase in gram-negative bacteria. E. coli JM83 (AAC6′/APH2″) contains a plasmid with the gene for the bifunctional aminoglycoside-modifying enzyme AAC(6′)/APH(2″), which is produced by many cocci. The enzyme is able to phosphorylate at the 2″ position and/or acetylate at the 6′ position of various aminoglycoside antibiotics to manifest resistance for the organisms that express it. Serratia marcescens ATCC 13880, Enterobacter cloacae ATCC 3047, Pseudomonas aeruginosa 66 and C43 are representative important gram-negative pathogens. Aminoglycosides by themselves or in combination with other antibiotics are often used to combat these microorganisms, especially P. aeruginosa that is often very difficult to treat. Staphylococcus aureus 3 and Enterococcus faecium 119 are representatives of the cocci. […]
(§2) The MICs of all antibiotics, including the compounds of the present invention (i.e., the compounds of formula (I)), were determined by microdilution method broth procedure. […]

[2] = system: F-AS; assay: Binding to A-site rRNA template; conditions: specific assay conditions; compared with compound 4 for F-AS
[3] = system: E. coli JM83 (AAC6′/APH2″); assay: MIC, microdilution broth, E. coli hyper-expressing AAC(6′)/APH(2″); type: cell-based, Escherichia coli; conditions: for antibiotic activity: E. coli hyper-expressing AAC(6′)/APH(2″)
Description: (§3) Escherichia coli JM83 is an antibiotic-sensitive laboratory strain. E. coli JM83 (APH(3′)-I) contains high copies (500–700 copies per cell) of plasmid pUC19 with the cloned kanamycin resistance gene from transposon Tn903 that produces the type I aminoglycoside 3′-phosphotransferase. APH(3′)-I is the most common aminoglycoside phosphotransferase in gram-negative bacteria. E. coli JM83 (AAC6′/APH2″) contains a plasmid with the gene for the bifunctional aminoglycoside-modifying enzyme AAC(6′)/APH(2″), which is produced by many cocci. The enzyme is able to phosphorylate at the 2″ position and/or acetylate at the 6′ position of various aminoglycoside antibiotics to manifest resistance for the organisms that express it. Serratia marcescens ATCC 13880, Enterobacter cloacae ATCC 3047, Pseudomonas aeruginosa 66 and C43 are representative important gram-negative pathogens. Aminoglycosides by themselves or in combination with other antibiotics are often used to combat these microorganisms, especially P. aeruginosa that is often very difficult to treat. Staphylococcus aureus 3 and Enterococcus faecium 119 are representatives of the cocci. Most of these microorganisms are intrinsically resistant to aminoglycosides (poor permeability), but in combination with β-lactam antibiotics are often used to treat infections caused by these microorganisms.
(§4) The MICs of all antibiotics, including the compounds of the present invention (i.e., the compounds of formula (I)), were determined by microdilution method broth procedure. Sequential twofold dilutions of antibiotics were performed in 100 μL of Luria-Bertani (LB) broth in sterile 96-well microtiter plates. Overnight cultures of bacteria were diluted 100 times in LB broth and subgrown for several hours and 10 μL of diluted cultures were transferred into the antibiotic containing microtiter plates to bring final inoculums to 10^5 CFU/mL (CFU stands for the colony forming units). Cultures were incubated overnight at 35° C. and microtiter plates were checked from below with a reflective viewer.

[4] = system: Pseudomonas aeruginosa 66 and C43; assay: MIC, microdilution broth, P. aeruginosa; type: cell-based
Description: as §3, §4

[5] = system: E. coli JM83 (APH(3′)-I); assay: MIC, microdilution broth, E. coli hyper-expressing APH(3′)-I; type: cell-based, Escherichia coli; conditions: for antibiotic activity / fold lower activity than tobramycin and amikacin: E. coli hyper-expressing APH(3′)-I
Description: as §3, §4

[6] = system: Enterobacter cloacae ATCC 3047; assay: MIC, microdilution broth, E. cloacae; type: cell-based
Description: as §3, §4

[7] = system: Serratia marcescens ATCC 13880; assay: MIC, microdilution broth, S. marcescens; type: cell-based
Description: as §3, §4

[8] = system: Staphylococcus aureus 3; assay: MIC, microdilution broth, S. aureus; type: cell-based; conditions: S. aureus 3
Description: as §3, §4

[9] = system: Enterococcus faecium 119; assay: MIC, microdilution broth, E. faecium; type: cell-based; conditions: E. faecium 119, moderately resistant to aminoglycosides
Description: as §1, §2

[10] = system: Escherichia coli JM83; assay: MIC, microdilution broth, E. coli JM83; type: cell-based; conditions: E. coli JM83, antibiotic-sensitive laboratory strain
Description: as §1, §2

Row | Compound | binding to RNA [2] | antibiotic activity [3] | antibiotic activity [4] | antibiotic activity [5] | antibiotic activity [6] | antibiotic activity [7] | antibiotic activity [8] | also measured
1 | NCCNCCOC1C(NC(=O)[C@@H](O)CCN)CC(N)C(O[C@H]2O[C@H](CN)[C@@H](O)[C@H](O)[C@H]2N)C1O (stereo partly drawn) [Compound 3, 1-N-[(S)-4-Amino-2-hydroxybutanoyl]-6-O-[2-N-(2-ethylamino)ethylamino]neamine] | – | – | – | – | – | – | – | MIC values relative to compounds 4 and 5 [1]: approximately four-fold higher
2 | NCCCCNCCOC1C(NC(=O)Cc2cccc(N)c2)CC(N)C(O[C@H]2O[C@H](CN)[C@@H](O)[C@H](O)[C@H]2N)C1O (stereo partly shown) [Compound 9, 1-N-[3-Aminophenylethanoyl]-6-O-[2-N-(4-butylamino)ethylamino]neamine] | do bind to the RNA | – | – | – | – | – | – | –
3 | NCCCN(CCOC1C(NC(=O)[C@@H](O)CCN)CC(N)C(O[C@H]2O[C@H](CN)[C@@H](O)[C@H](O)[C@H]2N)C1O)C(=O)[C@@H](O)CCN (stereo partly drawn) [Compound 7, 1-N,6-O-(2-N)-Bis[(S)-4-amino-2-hydroxybutanoyl]-6-O-[2-N-(3-propylamino)ethylamino]neamine] | – | moderate activity | moderate activity | moderate activity | moderate activity | moderate activity | – | MIC ([3]; E. coli strain producing AAC(6′)/APH(2″)): 32 µg/mL; MIC ([5]; E. coli strain producing APH(3′)-I): 64 µg/mL
4 | NCCCNCCOC1C(NC(=O)[C@@H](O)CCN)CC(N)C(O[C@H]2O[C@H](CN)[C@@H](O)[C@H](O)[C@H]2N)C1O (stereo partly drawn) [Compound 4, 1-N-[(S)-4-Amino-2-hydroxybutanoyl]-6-O-[2-N-(3-propylamino)ethylamino]neamine] | – | good activity | excellent activities | good activity | excellent activities | excellent activities | good activities | fold lower activity than tobramycin and amikacin [5]: 8 fold; antibiotic activity [9]: good activities
5 | NCCCCNCCOC1C(NC(=O)[C@@H](O)CCN)CC(N)C(O[C@H]2O[C@H](CN)[C@@H](O)[C@H](O)[C@H]2N)C1O (stereo partly drawn) [Compound 5, 1-N-[(S)-4-Amino-2-hydroxybutanoyl]-6-O-[2-N-(4-butylamino)ethylamino]neamine] | comparable binding affinity | good activity | excellent activities | good activity | excellent activities | excellent activities | good activities | fold lower activity than tobramycin and amikacin [5]: 8 fold; antibiotic activity [9]: good activities
6 | 6-O-[2-N-(3-Propylamino)ethylamino]neamine [Compound 6] | – | not active | – | not active | demonstrates activity | demonstrates activity | demonstrates activity | antibiotic activity [10]: demonstrates activity; overall antibiotic activity [1]: lower activity than compound 3
7 | NCCCCNCCOC1C(NC(=O)Cc2ccc(N)cc2)CC(N)C(O[C@H]2O[C@H](CN)[C@@H](O)[C@H](O)[C@H]2N)C1O (stereo partly shown) [Compound 8, 1-N-[4-Aminophenylethanoyl]-6-O-[2-N-(4-butylamino)ethylamino]neamine] | do bind to the RNA | – | – | – | – | – | – | –
